This test deals with 171881-019-R-J1-PDC tumor spheroids, viability. Put plainly: Anticancer human tumor 171881-019-R-J1-PDC patient-derived invasive breast carcinoma cell line growth inhibition [GQUAD]. The following applies: spheroids with HUVEC and MSC; for viability, T/C: stronger effect = lower value. From the text:
DNA G-quadruplex Stabilizer Agents in Combinations in Complex Spheroids
A high-throughput screen of multi-cell type tumor spheroids was designed to identify active combinations of DNA G-quadruplex stabilizer agents and targeted small molecules. Complex spheroids include a stromal component modeled by human endothelial cells (HUVEC) and fibroblasts modeled by human mesenchymal stem cells (MSCs). The concentration ranges selected for each drug and investigational agent were based upon clinically achievable concentrations if the clinical Cmax of the agent was known.
Compounds. The drugs and investigational agents: pidnarulex (CX-5461; NSC782164), APTO-253 (NSC789042), BRACO-19 (NSC847499), peposertib (NSC802822), ceralasertib (NSC780249), elimusertib (NSC800525), camonsertib (NSC841442), AZD-1390 (NSC803789), olaparib (NSC753686), talazoparib (NSC767125), ART-558 (NSC835418), sotorasib (NSC818433), MRTX-1133 (NSC836407), SN-38 (NSC673596), topotecan (NSC609699), etoposide (NSC141540), doxorubicin (NSC123127), gemcitabine (NSC613327), 5-fluorouracil (NSC19893), paclitaxel (NSC125973), vemurafenib (NSC761431), panobinostat (NSC761190), R-306465 (JNJ-16241199; NSC773264), adavosertib (NSC754352), TP-3654 (NSC805149), carboplatin (NSC241240), KSQ-4279 (NSC840948), and staurosporine (NSC755774) were obtained from the National Cancer Institute (NCI) Developmental Therapeutics Program Chemical Repository (34). The FDA-approved anticancer drug set is available from the NCI Developmental Therapeutics Program. […] The stock solutions were prepared in dimethyl sulfoxide (DMSO, Sigma-Aldrich, St. Louis, MO, cat. D2650) at 800-fold the tested concentration and stored at -70 degrees C prior to their use. All drugs and investigational agents were tested over a range starting from a high concentration at or near the clinical Cmax and decreasing in half-log increments. If the clinical Cmax for an agent had not been determined, the highest concentration tested was 10 microM.
2.3 Cell Culture. All cells were maintained in an incubator at 37 degrees C and 5% CO2 with 95% humidity. The PDC lines were cultured according to standard operating procedures established by the NCI PDMR. All PDCs were thawed and cultured in Matrigel-coated flasks prepared with a working solution of 1X Ham's F-12 nutrient mix, without supplementation (Invitrogen, cat. 11765054), 100 U/mL penicillin-streptomycin (Invitrogen, cat. 15140122), and 2.5% Matrigel (Corning Inc., cat. 354248) for the first three passages. The 857933-349-R-J2-PDC line was cultured in 6C/Colon 1B media, which includes advanced DMEM/F-12 (Thermo Fisher Scientific, cat. 12634028), 10 mM HEPES (Thermo Fisher Scientific, cat. 15630080), 1X GlutaMAX supplement (Thermo Fisher Scientific, cat. 35050061), 0.1 mg/mL primocin (InvivoGen, cat. ant-pm-2), 10% defined fetal bovine serum, heat inactivated (HyClone Laboratories Inc., cat. SH30070.03HI), 50% L-WRN conditioned media (ATCC, cat. CRL-3276), 1.25 mM N-Acetyl-L-cysteine (Sigma-Aldrich, cat. A9165), 10 mM nicotinamide (Sigma-Aldrich, cat. N0636), 1X B-27 supplement (Thermo Fisher Scientific, cat. 17504044), 1X N-2 supplement (Thermo Fisher Scientific, cat. 17502048), 10 microM Y-27632 dihydrochloride (Tocris Bioscience, cat. 1254), and 50 ng/mL human EGF recombinant protein (Thermo Fisher Scientific, cat. PHG0311). The 485176-168-R4-J1-PDC line was cultured in Panc media, which includes all 6C/Colon 1B media components plus 100 ng/mL human FGF-10 (Thermo Fisher Scientific, cat. 100-26), 500 nM SB-431542 (Selleckchem, cat. S1067), and gastrin (Tocris, cat. 3006).
[…]

Setting [1] is: compound alone, run of 02/20/2024.

SMILES strings stand for the structures. Values joined by “and” are separate entries in the source; they are usually repeats but may differ in a detail not shown here. Equal values may be shown once. A value given as a limit tells only on which side of the number the result lay.
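Also: spheroids exposed to compounds for 7 days.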

As for `COc1ccc([C@@H](O)c2cc(-c3ncnc4cc(N5CCOCC5)ccc34)c(F)cc2Cl)nn1`, the viability, T/C (commonly the result in the treated group divided by that in the control group, in per cent) was 82.4% and 94.3% and 101% (compound 0.0316 µM); 85.4% and 83% and 76.8% (compound 0.1 µM); 72.4% and 72.6% and 69.2% (compound 0.316 µM); 46.7% and 35.9% and 46.9% (compound 1 µM); 13.4% and 7.19% and 13.3% (compound 3.16 µM); 5.21% and 1.35% and 5.78% (compound 10 µM). The half-maximal inhibitory concentration (IC50) – broadly, the concentration that gives 50% inhibition – (curve of compound) was 838 nM and 629 nM and 684 nM.
As for `COc1cccc2c1C(=O)c1c(O)c3c(c(O)c1C2=O)CC(O)(C(=O)CO)CC3OC1CC(N)C(O)C(C)O1` (stereo not drawn), the viability, T/C is 90.7% and 94.5% and 84.5% (compound 0.0316 µM); 52% and 64.5% and 52.4% (compound 0.1 µM); 39.5% and 50.2% and 35.5% (compound 0.316 µM); 13.5% and 20% and 15% (compound 1 µM); 0.2% and 0.32% and 0.18% (compound 3.16 µM); 0.4% and 0.19% and 0.39% (compound 10 µM). Besides, the concentration for half-maximal inhibition (IC50) (curve of compound) was 138 nM and 241 nM and 128 nM.
With `Cc1[nH]c2ccc(F)cc2c1-c1nc2c3cccnc3c3ncccc3c2[nH]1`, the viability, T/C reads like this: (compound 0.0316 µM) 101% [middle of 12 runs]; (compound 0.1 µM) 103% [middle of 12 runs]; (compound 10 µM) 54.6% [middle of 12 runs]. The IC50 runs as follows: under setting [1], 2.63 µM [middle of 8 runs]; (compound alone, run of 02/26/2024) 1.65 µM [middle of 4 runs].
For `Cc1[nH]c2ccccc2c1CCNCc1ccc(/C=C/C(=O)NO)cc1`, the viability, T/C is, setting by setting: (compound 0.000999 µM) 93.1% and 97% and 99.3%; (compound 0.00316 µM) 90.7% and 88% and 95.2%; (compound 0.00999 µM) 91.3% and 87.6% and 84.2%; (compound 0.0316 µM) 83.3% and 83.6% and 75.6%; (compound 0.0999 µM) 21.4% and 22.6% and 29%; (compound 0.316 µM) 0.4% and 0.47% and 1.04%. Where the note is “curve of compound”, the IC50 is 58.7 nM and 59.5 nM and 58.2 nM.
As for `Cc1cccc(N(C)C(=O)C2C(O)CCN2c2nc(C)cc(C(F)(F)F)c2C#N)c1` (stereo not drawn), the viability, T/C reads like this: (compound 0.0316 µM) 90.3% and 105% and 91.7%; (compound 0.1 µM) 101% and 88.7% and 99.2%; (compound 0.316 µM) 87.6% and 91.7% and 98.8%; (compound 1 µM) 104% and 95.4% and 100%; (compound 3.16 µM) 98.1% and 85.9% and 89.5%; (compound 10 µM) 84.6% and 77.5% and 71.8%. Also, for the setting “curve of compound”, the half-maximal inhibitory concentration (IC50) was over 10000 nM.
On to `Cc1cnc(CNC(=O)c2c(=O)c3ccc(N4CCCN(C)CC4)nc3n3c2sc2ccccc23)cn1`, for which the viability, T/C (compound 0.0316 µM) was 94.3% [middle of 12 runs]; the viability, T/C (compound 0.1 µM) was 85.4% [middle of 12 runs]; the viability, T/C (compound 0.316 µM) was 76% [middle of 12 runs]; the viability, T/C (compound 1 µM) is 70.7% [middle of 11 runs]; the viability, T/C (compound 3.16 µM) was 65% [middle of 12 runs]; the viability, T/C (compound 10 µM) was 62.7% [middle of 12 runs]. Also, the IC50 under setting [1] is over 10000 nM.
Regarding `Cn1ncnc1[C@H]1c2n[nH]c(=O)c3cc(F)cc(c23)N[C@@H]1c1ccc(F)cc1`, the viability, T/C runs as follows: (compound 0.000999 µM) 108% and 102% and 105%; (compound 0.00316 µM) 94.8% and 103% and 86.1%; (compound 0.00999 µM) 95% and 95.7% and 88.2%; (compound 0.0316 µM) 86.3% and 102% and 97.5%; (compound 0.0999 µM) 88.8% and 91.6% and 81.5%; (compound 0.316 µM) 94.1% and 80.5% and 73.1%. Besides, the IC50 (curve of compound) is over 316 nM.
In the case of `Nc1ccn(C2OC(CO)C(O)C2(F)F)c(=O)n1` (stereo not drawn), the viability, T/C reads like this: (compound 0.0316 µM) 24% and 35.9% and 25.5%; (compound 0.1 µM) 30.8% and 38.8% and 28.2%; (compound 0.316 µM) 39.4% and 47.6% and 37.4%; (compound 1 µM) 37.8% and 48.4% and 37.6%; (compound 3.16 µM) 35.4% and 45.9% and 35.1%; (compound 10 µM) 31.4% (2×) and 44%. For the same compound, where the note is “curve of compound”, the IC50 was under 31.6 nM.
In the case of `O=C(c1cc(Cc2n[nH]c(=O)c3ccccc23)ccc1F)N1CCN(C(=O)C2CC2)CC1`, the viability, T/C was 96.1% and 101% and 87.5% (compound 0.0316 µM); 94.4% and 97.5% and 96.8% (compound 0.1 µM); 94.5% and 105% and 103% (compound 0.316 µM); 103% and 101% and 96.6% (compound 1 µM); 100% and 97.8% and 95.5% (compound 3.16 µM); 89.8% and 88.3% and 89.4% (compound 10 µM). Besides, where the note is “curve of compound”, the concentration for half-maximal inhibition (IC50) was over 10000 nM.
In the case of `O=c1[nH]cc(F)c(=O)[nH]1`, the viability, T/C by setting is: (compound 0.0316 µM) 82.5% and 74.1% and 82.2%; (compound 0.1 µM) 61.5% and 60.6% and 75.6%; (compound 0.316 µM) 61.1% and 61.8% and 73.7%; (compound 1 µM) 57.7% and 55.4% and 66.4%; (compound 3.16 µM) 51.6% and 51.2% and 63.5%; (compound 10 µM) 52.5% and 54.1% and 66.9%. Moreover, the concentration for half-maximal inhibition (IC50) (curve of compound) was over 10000 nM.

Values taken from PubChem BioAssay AID2060498 (Molecular Pharmacology Branch, DTP, NCI, 2025).
